Columns and labels:
[1] = system: CD34+ HSPCs; experiment: editing of CD34+ HSPCs with purified i53 variant proteins and HBB-UBC-GFP AAV donor; flow cytometry; type: cell-based, human; details: for increase in levels of GFP integration over control edited cells: HBB-UBC-GFP AAV MOI 2500
Description: (§1) Chemically-modified single guide RNAs (sgRNAs) used to edit CD34+ HSPCs at the HBB locus were purchased from Synthego. The sgRNA sequences were modified by adding 2′-O-methyl-3′-phosphorothioate at the three terminal nucleotides of the 5′ and 3′ ends. The target sequence for the HBB sgRNA is as follows: HBB: 5′[…]-3′ (SEQ ID NO: 74). Cas9 protein (SpyFi Cas9) was purchased from Aldevron. The RNPs were complexed at a Cas9:sgRNA molar ratio of 1:2.5 at 25° C. for 10-15 min prior to electroporation. Cells were collected, counted, and pelleted at 180 g×7 min. The cell pellets were resuspended in Maxcyte buffer with complexed RNPs and electroporated using a Maxcyte EXPERT ATx Nucleofector. After electroporation cells were plated at 3.5×10^5 cells/mL in media supplemented with cytokines and the desired AAV donor added at 5.0×10^2-2.5×10^4 vector genomes/cell. 24 h after nucleofection, cells were spun down, washed once with media, and seeded into AAV-free media at a density of 3.5×10^5 cells/mL.
(§2) CD34+ HPSCs were edited with protein variants 3 days post thaw and were harvested 2 days post nucleofection for NGS analysis or 3-5 days post nucleofection for GFP expression analysis. Editing reactions with proteins at a given concentration were repeated in duplicate or triplicate (either using the same CD34+ HSPC donor or across multiple donors).
Rates of targeted integration of the HBB UBC GFP donor were measured using a Beckman Coulter CytoFLEX. DAPI (Miltenyi Biotec) was used to discriminate live and dead cells. Flow cytometry data were analyzed using FlowJo 10 software.

[2] = system: CD34+ HSPCs; experiment: editing of CD34+ HSPCs with purified i53 variant proteins and HBB-SNP AAV donor; NGS of editing outcomes; type: cell-based, human; details: for increase in levels of HDR corrected alleles over control edited cells: FIG. 13; for increase in levels of HDR corrected alleles over DM: L67R/L67H value is the average of both
Description: as §1, §2
24 h after nucleofection, cells were spun down, washed with media, and seeded into AAV and DNAPKi-free media at a density of 3.5×10^5 cells/mL.
The frequency of homology directed repair (HDR) and other editing outcomes at HBB were measured using Next Generation Sequencing (NGS). An NGS assay was developed to determine the frequency of at the HBB locus by quantifying the total number of alleles that have been either: (1) not edited (% WT), (2) changed by HDR to incorporate sequence differences present in the AAV repair template (% HR), or (3) mutated during the genome correction process resulting in a gene that produces mutant β-globin (% INDELs).
For this assay, genomic DNA was harvested from cells using a Quick-DNA 96 Plus Kit (Zymo Research). The DNA concentration was measured using a Qubit 1×dsDNA BR assay kit (ThermoFisher). Purified genomic DNA was then used to amplify the HBB locus via polymerase chain reaction (PCR). The PCR products were diluted using nuclease-free water to serve as the template DNA for targeted NGS library prep. A second PCR with primers carrying partial Illumina adapters was performed to amplify a 142 base pair sequence that includes the region of the HBB locus that is to be corrected during the genome correction process. The PCR products were diluted again to serve as templates in a third PCR reaction using Nextera XT index primers. This third PCR reaction was used to assign unique identifiers to each sample and to add the full length adapter sequences necessary for Illumina sequencing. The size of the PCR products was assessed on an Agilent BioAnalyzer. PCR products were then pooled, purified using a Qiagen PCR purification kit, and quantified using PicoGreen in order to ready the PCR products for sequencing.
Based on the PicoGreen concentration, the library of pooled PCR products was diluted to a final concentration of 4 nM. Sequencing was performed on a MiSeq system using an Illumina MiSeq sequencing reagent kit (V2, 300 cycles). A 10% PhiX control library was added to the sample library to improve sequence diversity and to allow for error rate measurements. The library was denatured and loaded at […] onto the sequencing reagent cartridge. The sequencing entails paired-end 150 base pair reads and dual indexing reads. The sequencing data was demultiplexed based on the sample indexes provided and FASTQ files for each sample are generated.
The FASTQ files were processed using the CRISPResso2 pipeline^3. The data was reported as % WT, % corrected by HR, and % INDELs. […]

[3] = system: CD34+ HSPCs; experiment: editing at the off-target editing site OT-1 (NGS-based analysis); type: cell-based, human; details: protein 0.8 mg/mL
Source text: Editing outcomes at the off-target (OT) editing site OT-1 can be assessed using an assay very similar to the one described above for measuring the targeted integration of HBB-SNP. The off-target editing site was identified via three different methods (in silico prediction,^13 Circle-Seq,^14 and Guide-Seq^15) and was confirmed to be off-target editing site of significance via amplicon sequencing. The workflow for the OT-1 amplicon sequencing assay is very similar to the on-target sequencing assay but involves one less PCR step. A small 166 base pair sequence encompassing the OT-1 editing site is amplified directly from genomic DNA in the first PCR and then tagged with barcode and adapter sequences in a second PCR. The resulting PCR products are sized, quantified, and prepared for sequencing in the same manner as for the HBB on-target sequencing assay. The sequencing data is also processed using the Crispresso2 pipeline,^3 but in contrast to the on-target sequencing assay no homology direct repair outcomes are present at OT-1, only % WT and % INDELs are reported.

[4] = system: HDR-mediated integration of a donor sequence; experiment: i53 as protein-based additive, enhancement of HDR-mediated integration of a donor sequence (data not shown); type: cell-based; details: 1.5 mg/mL purified i53 in nucleofection solution, relatively inconsistent results
[5] = molecular target: 53BP1 Tudor domain (Homo sapiens, UniProt Q12888); details: previously reported; mutants relative to i53; cited from earlier work
[6] = molecular target: 53BP1 (Homo sapiens, UniProt Q12888); details: transiently expressed in cells; cited from earlier work
Chain of 53BP1 (Q12888 whole entry): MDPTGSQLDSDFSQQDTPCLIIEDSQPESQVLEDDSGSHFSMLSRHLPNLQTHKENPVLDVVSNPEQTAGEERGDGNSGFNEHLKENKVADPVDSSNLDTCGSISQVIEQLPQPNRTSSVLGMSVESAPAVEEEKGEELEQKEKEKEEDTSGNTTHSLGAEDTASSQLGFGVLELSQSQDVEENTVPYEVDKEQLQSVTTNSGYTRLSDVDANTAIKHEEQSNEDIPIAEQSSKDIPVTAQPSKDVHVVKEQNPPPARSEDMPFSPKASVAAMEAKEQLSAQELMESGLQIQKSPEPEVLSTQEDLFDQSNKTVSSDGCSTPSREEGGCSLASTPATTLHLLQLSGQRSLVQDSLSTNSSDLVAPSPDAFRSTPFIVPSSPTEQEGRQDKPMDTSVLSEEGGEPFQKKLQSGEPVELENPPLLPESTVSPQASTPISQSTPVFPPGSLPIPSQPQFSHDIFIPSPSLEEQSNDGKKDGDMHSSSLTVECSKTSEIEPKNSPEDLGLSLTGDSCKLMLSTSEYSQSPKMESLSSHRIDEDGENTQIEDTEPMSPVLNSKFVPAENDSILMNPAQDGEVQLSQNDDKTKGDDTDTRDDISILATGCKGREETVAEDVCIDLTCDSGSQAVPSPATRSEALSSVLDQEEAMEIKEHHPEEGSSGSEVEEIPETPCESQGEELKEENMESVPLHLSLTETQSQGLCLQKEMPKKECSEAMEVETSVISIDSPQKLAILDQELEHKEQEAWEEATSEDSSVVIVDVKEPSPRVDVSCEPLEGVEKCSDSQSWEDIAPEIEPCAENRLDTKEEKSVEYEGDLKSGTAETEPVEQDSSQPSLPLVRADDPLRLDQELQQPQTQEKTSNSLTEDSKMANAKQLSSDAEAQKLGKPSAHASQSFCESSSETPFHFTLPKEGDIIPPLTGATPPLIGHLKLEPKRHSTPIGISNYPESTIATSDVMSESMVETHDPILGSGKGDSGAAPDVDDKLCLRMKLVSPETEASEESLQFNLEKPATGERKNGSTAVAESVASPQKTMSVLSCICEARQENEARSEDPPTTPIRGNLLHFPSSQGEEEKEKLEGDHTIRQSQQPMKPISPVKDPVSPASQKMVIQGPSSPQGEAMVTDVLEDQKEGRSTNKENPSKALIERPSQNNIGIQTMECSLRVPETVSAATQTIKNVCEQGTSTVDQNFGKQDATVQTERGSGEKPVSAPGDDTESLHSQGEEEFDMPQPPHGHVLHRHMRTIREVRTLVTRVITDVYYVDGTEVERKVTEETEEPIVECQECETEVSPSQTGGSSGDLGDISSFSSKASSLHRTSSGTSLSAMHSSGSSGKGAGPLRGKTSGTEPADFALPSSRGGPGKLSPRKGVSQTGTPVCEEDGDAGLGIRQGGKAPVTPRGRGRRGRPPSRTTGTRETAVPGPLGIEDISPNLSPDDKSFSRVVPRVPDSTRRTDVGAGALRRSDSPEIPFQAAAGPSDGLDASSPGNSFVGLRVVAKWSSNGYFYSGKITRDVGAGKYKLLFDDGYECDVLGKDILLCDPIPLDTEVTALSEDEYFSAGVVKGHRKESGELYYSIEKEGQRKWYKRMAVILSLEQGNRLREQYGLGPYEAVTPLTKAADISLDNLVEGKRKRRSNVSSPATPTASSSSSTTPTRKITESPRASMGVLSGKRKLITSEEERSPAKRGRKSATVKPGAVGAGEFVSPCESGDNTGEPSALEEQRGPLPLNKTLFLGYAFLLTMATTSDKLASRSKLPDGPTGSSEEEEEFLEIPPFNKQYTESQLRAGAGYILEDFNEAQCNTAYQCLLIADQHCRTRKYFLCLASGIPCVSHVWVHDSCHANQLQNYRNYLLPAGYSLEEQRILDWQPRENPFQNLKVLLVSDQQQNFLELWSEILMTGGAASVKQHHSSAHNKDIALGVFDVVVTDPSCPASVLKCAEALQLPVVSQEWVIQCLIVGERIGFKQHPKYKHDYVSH

Chain of 53BP1 Tudor domain (Q12888 1484-1603 limits assumed): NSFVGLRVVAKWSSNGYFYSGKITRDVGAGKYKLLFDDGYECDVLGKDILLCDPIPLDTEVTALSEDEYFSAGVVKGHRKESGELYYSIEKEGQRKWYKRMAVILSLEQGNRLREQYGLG

i53: engineered ubiquitin variant, known inhibitor of 53BP1, selectively binds the Tudor domain of 53BP1 [reference compound]
increase of % HDR over DM ([1]; HBB-UBC-GFP AAV MOI 1250, protein 0.4 mg/mL, GFP integration in live cells, L67R/L67H value is the average of both): 19% | increase in levels of GFP integration over control edited cells ([1]; protein 0.1 mg/mL): 5% | increase in levels of GFP integration over control edited cells ([1]; protein 0.2 mg/mL): 18% | increase in levels of GFP integration over control edited cells ([1]; protein 0.4 mg/mL): 29% | increase in levels of GFP integration over control edited cells ([1]; protein 0.8 mg/mL): 45% | increase in levels of HDR corrected alleles over control edited cells ([2]; MOI 312.5, protein 0.1 mg/mL): 18% | increase in levels of HDR corrected alleles over control edited cells ([2]; MOI 312.5, protein 0.2 mg/mL): 24% | increase in levels of HDR corrected alleles over control edited cells ([2]; MOI 312.5, protein 0.4 mg/mL): 45% | increase in levels of HDR corrected alleles over control edited cells ([2]; MOI 2500, protein 0.1 mg/mL): 3% | increase in levels of HDR corrected alleles over control edited cells ([2]; MOI 2500, protein 0.2 mg/mL): 5% | increase in levels of HDR corrected alleles over control edited cells ([2]; MOI 2500, protein 0.4 mg/mL): 18% | levels of HDR corrected alleles (normalized by total edited alleles), dose response ([2]; FIG. 26, protein 0.2, 0.4 and 0.8 mg/mL, MOIs 312.5 and 2500): decrease significantly as the protein concentrations decreased | increase in levels of HDR corrected alleles over DM ([2]; HBB-SNP AAV MOI 312.5, protein 0.4 mg/mL): 14% | increase in levels of HDR corrected alleles over DM ([2]; HBB-SNP AAV MOI 2500, protein 0.4 mg/mL): 15% | frequency of INDELS at the off-target editing site OT-1 [3]: not significantly increase | increases in HDR-mediated integration of a donor sequence [4]: 10-20% | binding to the 53BP1 Tudor domain [5]: selectively bind | recruitment of 53BP1 to DSBs [6]: block recruitment of 53BP1 to DSBs

From patent publication US20260207777A1, “IMPROVED PEPTIDE INHIBITORS OF P53 BINDING PROTEIN 53BP1” (KAMAU THERAPEUTICS, INC., priority 2022, published 2026)
